Source: PMC6820371, “Terbium-161 for PSMA-targeted radionuclide therapy of prostate cancer” (European Journal of Nuclear Medicine and Molecular Imaging, 2019)

Assays:
[1] = Stability of radioligand incubated in saline (radiolytic degradation); format: physicochemical
Procedure: (§1) The radiolabeling of PSMA-617 (Advanced Biochemical Compounds, ABX GmbH, Radeberg, Germany) with ^161Tb was performed under standard labeling conditions (Supplementary material). […] The n-octanol/PBS distribution coefficient (logD) was determined for ^161Tb-PSMA-617 (Supplementary material). All of these experiments were performed as previously reported for ^177Lu-PSMA-617 [27].

PC-3 PIP tumor cells = test: Cell survival assay (clonogenic assay); format: cell-based, human; settings: 0.05–5.0 MBq/mL, p < 0.05
[2] = system: PC-3 PIP/flu tumor-bearing mice; settings: ~25 MBq
Procedure: In a separate study, SPECT/CT experiments were performed 12–14 days after tumor cell inoculation using a dedicated small-animal SPECT/CT camera (NanoSPECT/CT^TM, Mediso Medical Imaging Systems, Budapest, Hungary) as previously reported (Supplementary material) [34]. ^161Tb-PSMA-617 (~25 MBq/nmol) was diluted in saline for injection. Scans were acquired at 1 h, 4 h, and 24 h after injection of the radioligands (~25 MBq, 1 nmol, 100 μL). During the in-vivo scans, mice were anesthetized using a mixture of Isoflurane and oxygen.
Methods: Mice were inoculated with PC-3 PIP/flu tumor cells, as described for biodistribution studies, and injected with ^161Tb-PSMA-617 (~25 MBq, 1 nmol per mouse) about 12-14 days later. Under these conditions, the SPECT scans lasted for ~40 min. […] During the in-vivo scans, mice were anesthetized using a mixture of Isoflurane and oxygen.
SPECT/CT experiments were performed using a dedicated small-animal SPECT/CT camera (NanoSPECT/CT^TM, Mediso Medical Imaging Systems, Budapest, Hungary) as previously reported [4, 10]. The images were acquired using Nucline software (version 1.02, Mediso Ltd., Budapest, Hungary). The real-time CT reconstruction used a cone-beam-filtered backprojection. […] The lower scale of radioactivity was cut by 1% to make tumors and kidneys best visible.

[3] = system: mice inoculated with PC-3 PIP cells; test: Additional therapy study (injection 2 days after tumor cell inoculation); format: in vivo; settings: for Median Survival: control 26 days
Procedure: The day of the treatment, two days after tumor cell inoculation, was defined as Day 0 of the study (Table S7).
Endpoint criteria: The mice were monitored until they reached an endpoint (definition of endpoints, see Chapter 13) or over the whole period of 38 days when the study was terminated.
Data analysis of the therapy study: The tumor growth delay indices (TGDI2 and TGDI5) were calculated as reported in the Methods of the main manuscript. The median survival was determined using GraphPad Prism software (version 7).

[4] = n-octanol/PBS distribution coefficient (logD), shake-flask method; format: physicochemical; settings: PBS pH 7.4
Procedure: as §1
It was diluted in PBS pH 7.4 (∼500 kBq, 25 µL, 0.01 nmol) and added to polypropylene tubes containing 1475 µL PBS and 1500 µL n-octanol followed by vigorous vortexing for 1 min. Phase separation was obtained by centrifugation at 1200 rcf for 6 min. The distribution coefficients were calculated as the logarithm of the ratio of counts per minute (cpm) measured in the n-octanol phase relative to the cpm measured in the PBS pH 7.4 phase using a γ-counter (Perkin Elmer, Wallac Wizard 1480). At least three experiments were performed in quintuplicate.

[5] = system: PSMA-positive PC-3 PIP tumor cells; test: Tumor cell uptake and internalization; format: cell-based, human; settings: for Internalized fraction: PC-3 PIP

**Q.** For `O=C([O-])CN1CCN(CC(=O)[O-])CCN(CC(=O)NCC2CCC(C(=O)NC(Cc3ccc4ccccc4c3)C(=O)NCCCCC(NC(=O)NC(CCC(=O)O)C(=O)O)C(=O)O)CC2)CCN(CC(=O)[O-])CC1.[161Tb+3]` (centres unmarked) [^161Tb-PSMA-617], which “Stability (intact radioligand)” value ([1]; 50 MBq/nmol, 250 MBq/500 μL, at least 1 h, without L-ascorbic acid) is on record?
**A.** > 98%

**Q.** What about the “Stability when incubated for longer time periods” value ([1]; 250 MBq/500 μL, longer than 1 h, without L-ascorbic acid) of the same compound?
**A.** radiolytic degradation

**Q.** What about the “Stability (intact radioligand)” value ([1]; in the presence of L-ascorbic acid, up to 24 h) of the same compound?
**A.** ≥ 98%

**Q.** What about the “Reduction of tumor-cell survival compared to ^177Lu-PSMA-617” value (PC-3 PIP tumor cells) of the same compound?
**A.** significantly more effective

**Q.** What about the “Uptake in the PSMA-negative PC-3 flu tumor (SPECT/CT)” value ([2]; 1 h, 4 h and 24 h p.i.) of the same compound?
**A.** negligible uptake

**Q.** What about the “Renal excretion of activity (SPECT/CT)” value ([2]; after 4 h) of the same compound?
**A.** almost entirely excreted

**Q.** And the First mouse euthanized ([3]; 2.5 MBq)?
**A.** 26 days

**Q.** And the TGDI2 ([3]; 2.5 MBq)?
**A.** 1.0 ± 0.4

**Q.** And the TGDI5 ([3]; 2.5 MBq)?
**A.** 1.2 ± 0.3

**Q.** What about the “Median Survival” value ([3]; 2.5 MBq) of the same compound?
**A.** 31 days

**Q.** What about the Last mouse euthanized ([3]; 2.5 MBq, study end Day 38) of the same compound?
**A.** study end

**Q.** What about the First mouse euthanized ([3]; 5.0 MBq) of the same compound?
**A.** 30 days

**Q.** And the TGDI2 ([3]; 5.0 MBq)?
**A.** 1.6 ± 0.4

**Q.** And the “Median Survival” value ([3]; 5.0 MBq)?
**A.** 34 days

**Q.** And the Last mouse euthanized ([3]; 5.0 MBq, study end Day 38)?
**A.** study end

**Q.** And the Survival ([3]; 10 MBq)?
**A.** survived until the end of the study at Day 38

**Q.** What about the “Cases in which tumors started to grow” value ([3]; 10 MBq, from Day 25 and Day 35 on) of the same compound?
**A.** 2 of 8

**Q.** And the First mouse euthanized ([3]; 10 MBq, study end Day 38)?
**A.** study end

**Q.** And the Last mouse euthanized ([3]; 10 MBq, study end Day 38)?
**A.** study end

**Q.** And the “n-octanol/PBS distribution coefficient (logD value)” value [4]?
**A.** −3.9 ± 0.1

**Q.** And the “PC-3 PIP tumor cell uptake” value ([5]; 2–4 h incubation)?
**A.** 47–54%

**Q.** What about the “Uptake in PC-3 PIP tumor cells” value ([5]; 2 h incubation) of the same compound?
**A.** 47%

**Q.** And the “Uptake in PC-3 PIP tumor cells” value ([5]; 4 h incubation)?
**A.** 54%

**Q.** What about the Internalized fraction ([5]; 2–4 h incubation) of the same compound?
**A.** 8–11%

**Q.** And the Internalized fraction ([5]; 2 h)?
**A.** 8%

**Q.** What about the Internalized fraction ([5]; 4 h) of the same compound?
**A.** 11%
